# Structures can show the parent of a compound that is named as a salt.
# System: 5-HT4 receptor
# Experiment: Guinea pig colon 5-HT4 receptor antagonist activity (longitudinal muscle-myenteric plexus, 5-HT-evoked contraction)
# Type: cell-based
# Conditions: guinea-pig distal colon longitudinal muscle-myenteric plexus; contraction evoked by 5-HT
# Procedure: 5-HT4 RECEPTOR ANTAGONIST ACTIVITY
# Male guinea-pigs, weighing 250-400 g are used. Longitudinal muscle-myenteric plexus preparations, approximately 3 cm long, are obtained from the distal colon region. These are suspended under a 0.5 g load in isolated tissue baths containing Krebs solution bubbled with 5% CO2 in O2 and maintained at 37° C. In all experiments, the Krebs solution also contains methiothepin 10^-7 M and granisetron 10^-6 M to block effects at 5-HT1, 5-HT2 and 5-HT3 receptors.
# After construction of a simple concentration-response curve with 5-HT, using 30s contact times and a 15 min dosing cycle, a concentration of 5-HT is selected so as to obtain a contraction of the muscle approximately 40-70% maximum(10^-9 M approx). The tissue is then alternately dosed every 15 min with this concentration of 5-HT and then with an approximately equi-effective concentration of the nicotine receptor stimulant, dimethylphenylpiperazinium (DMPP). After obtaining consistent responses to both 5-HT and DMPP, increasing concentrations of a putative 5-HT4 receptor antagonist are then added to the bathing solution. The effects of this compound are then determined as a percentage reduction of the contractions evoked by 5-HT or by DMPP. […] A compound which reduces the response to 5-HT but not to DMPP is believed to act as a 5-HT4 receptor antagonist.
structure (smiles),measurement,value
"CCCCN1CCC(COC(=O)c2cccc3cccnc23)CC1 [Example 1-2, (1-Butyl-4-piperidinylmethyl)quinolinyl-8-carboxylate hydrochloride]",5-HT4 receptor antagonist activity (in words),particularly good activity

# Reference: patent US5708174A, “Heterocyclic-esters or -amides used as 5-HT4 receptor antagonists” (SmithKline Beecham p.l.c., priority 1992, dated 1998)
